How the values were obtained:
narkotisierten Katze = experiment: Blood pressure lowering and positive inotropic effect in the anaesthetised cat; format: in vivo; settings: 0,1 mg/kg i.v., mean of 3 cats; for Wirkungsdauer (Halbwerts-zeit): anaesthetised cats; for Blutdruck änderung in mmHg: second value of the printed pair (presumably diastolic), pentobarbital-anaesthetised cats
Method: 2. Bestimmung der blutdrucksenkenden und positiv inotropen Wirkung an der narkotisierten Katze:
Die Untersuchungen wurden an Katzen durchgeführt, die mit Pentobarbital-Natrium (40 mg/kg i.p.) narkotisiert waren. Die Tiere atmeten spontan. Der arterielle Blutdruck wurde in der Aorta abdominalis mit einem Statham-Druckwandler (P 23 Dc) gemessen. Für die Erfassung der positiv inotropen Wirkung wurde mit einem Kathetertipmanometer (Milliar PC-350 A) der Druck in der linken Herzkammer gemessen. Daraus wurde der Kontraktilitätsparameter dp/dtmax mittels eines Analogdifferenzierers gewonnen. Die zu untersuchende Substanz wurden in eine Vena femoralis injiziert Als Lösungsmittel diente Polydiol 200. Die Substanz wurde an 3 Katzen geprüft, Dosis 0,1 i.v..

Thrombozytenaggregation = experiment: Platelet aggregation according to Born and Cross (collagen-induced, photometric); format: cell-based, gesunder Versuchspersonen; settings: collagen-induced aggregation in platelet-rich plasma of healthy subjects
Method: 1. Bestimmung der Thrombozytenaggregation nach Bom und Cross (J. Physiol. 170, 397 (1964)):
Die Thrombozytenaggregation wurde in plättchenreichem Plasma gesunder Versuchspersonen gemessen. Hierbei wurde der Verlauf der Abnahme der optischen Dichte nach Zugabe von handelsüblichem Collagen der Firma Sigma, St. Louis/USA, welches 1 mg Collagen-Fibrillen pro ml enthält, photometrisch gemessen und registriert. Aus dem Neigungswinkel der Dichtekurve wurde auf die Aggregationsgeschwindigkeit (Vmax) geschlossen. Der Punkt der Kurve, bei dem die größte Lichtdurchlässigkeit vorlag, diente zur Berechnung der "optical density" (O.D.). Zur maximalen Aggregationsauslösung werden ca. 0,01 ml der Collagenlösung zu 1 ml plättchenreichem Plasma gegeben.

Row | SMILES | Wirkungsdauer (Halbwerts-zeit) (narkotisierten Katze) [Minuten] | Blutdruck änderung in mmHg (narkotisierten Katze) [mmHg] | EC50 (Thrombozytenaggregation) [µM]
1 | CC1CC(=O)NN=C1c1ccc2oc(-n3ccnc3)nc2c1 (stereo not shown) [A, 5-Methyl-6-[2-(1-imidazolyl)-benzoxazol-5-yl]-4,5-dihydro-3(2H)-pyridazinon] | 25 | -45 | 0.031
2 | CC1CC(=O)NN=C1c1ccc2nc(N3CCNCC3)oc2c1 (stereo not shown) [B, 5-Methyl-6-[2-(1-piperazinyl)-benzoxazol-6-yl]-4,5-dihydro-3(2H)-pyridazinon] | 12 | -43 | 
3 | CCOC(=O)N1CCN(c2nc3ccc(C4=NNC(=O)CC4C)cc3o2)CC1 (stereo not shown) [C, 5-Methyl-6-[2-(4-carbäthoxy-1-piperazinyl)-benzoxazol-6-yl]-4,5-dihydro-3(2H)-pyridazinon] | 12 | -50 | 
4 | CC1CC(=O)NN=C1c1ccc2[nH]c(N3CCCC3)nc2c1 (stereo not shown) [D] | 13 | -17 | 
5 | CC1CC(=O)NN=C1c1ccc2[nH]c(N3CCSCC3)nc2c1 (stereo not shown) [E, 5-Methyl-6-[2-(4-thiomorpholino)-benzimidazol-5-yl]-4,5-dihydro-3(2H)-pyridazinon] | 10 | -12 | 
6 | CC1CC(=O)NN=C1c1ccc2nc(-n3ccnc3)[nH]c2c1 (stereo not shown) [F, 5-Methyl-6-[2-(1-imidazolyl)-benzimidazol-5-yl]-4,5-dihydro-3(2H)-pyridazinon] | 8 | -20 | 
